Results from publication PMC2229530 (The Journal of General Physiology, 2002).
Blank lines part the entries; values can stand above or below the compound they belong to.

Legend:
sodium pump [1] = molecular target: sodium pump (Homo sapiens, UniProt P05023); assay type: cell-based; conditions: for Slope of replot of A versus inhibitor concentration (unprotonated pump) / Slope of replot of B versus inhibitor concentration (protonated pump): 0.3 mM rubidium; for Slope of replot of A versus inhibitor concentration (unprotonated pump): Fig. 4a; for Slope of replot of B versus inhibitor concentration (protonated pump): Fig. 4b
sodium pump [2] = molecular target: sodium pump (Rattus norvegicus, UniProt P06685); assay type: cell-based
Sequence of sodium pump (Rattus norvegicus, UniProt P06685) (Q63377 whole entry, other chains not shown): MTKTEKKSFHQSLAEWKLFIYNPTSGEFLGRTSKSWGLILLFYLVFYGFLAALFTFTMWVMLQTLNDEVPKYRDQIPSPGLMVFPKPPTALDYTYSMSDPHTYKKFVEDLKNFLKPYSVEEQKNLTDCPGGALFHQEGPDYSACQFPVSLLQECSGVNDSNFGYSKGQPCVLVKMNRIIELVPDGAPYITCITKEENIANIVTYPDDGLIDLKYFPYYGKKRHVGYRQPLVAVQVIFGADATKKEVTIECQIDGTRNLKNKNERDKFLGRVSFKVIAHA

- Slope of replot of A versus inhibitor concentration (unprotonated pump) (sodium pump [1]; human red blood cells): 0.392 ± 0.078
- Slope of replot of B versus inhibitor concentration (protonated pump) (sodium pump [1]; human red blood cells): 0.282 ± 0.019
SMILES: CC[N+](C)(C)Cc1ccccc1Br [bretylium]

- Kd (sodium pump [2]; read-out: KH, proton binding to the pump in the absence of rubidium, rat pump, unloaded): 2.11 nM
SMILES: [H+] [protons]

- Slope of replot of A versus inhibitor concentration (unprotonated pump) (sodium pump [1]; human red blood cells): 0.271 ± 0.037
- Slope of replot of B versus inhibitor concentration (protonated pump) (sodium pump [1]; human red blood cells): 0.040 ± 0.006
- Fold increase by protons of the kinetic constant (sodium pump [2]; rat red cells): 7.1 fold
SMILES: [Na+] [sodium]

- Slope of replot of A versus 1/[Rb] (sodium pump [1]; human red blood cells, A normalized to y intercept 1, Fig. 2b): 1.32 ± 0.07
- Slope of replot of B versus 1/[Rb] (sodium pump [1]; human red blood cells, Fig. 2b): 0.0387 ± 0.0074
- KRb, kinetic constant for rubidium binding to the unprotonated pump (sodium pump [1]; human red cells, from replot of A vs 1/Rb, 37°C): 1.32 ± 0.07 mM
- LRb, kinetic constant for rubidium binding to the protonated pump (sodium pump [1]; human red cells, from replot of B vs 1/Rb, 37°C): 0.0387 ± 0.0074 mM
- Slope of replot of A versus 1/[Rb] (sodium pump [2]; rat red blood cells, A normalized to y intercept 1, Fig. 2a): 0.868 ± 0.101
- Slope of replot of B versus 1/[Rb] (sodium pump [2]; rat red blood cells, Fig. 2a): 0.066 ± 0.0059
- Fold decrease by protons of the kinetic constant / Ki (sodium pump [2]; rat red cells): ~13 fold
- KRb, kinetic constant for rubidium binding to the unprotonated pump (sodium pump [2]; rat red cells, from replot of A vs 1/Rb, 37°C): 0.87 ± 0.1 mM
- LRb, kinetic constant for rubidium binding to the protonated pump (sodium pump [2]; rat red cells, from replot of B vs 1/Rb, 37°C): 0.066 ± 0.006 mM
SMILES: [Rb] [rubidium]

SMILES: N=C(N)N.O=[N+]([O-])O [guanidinium, Guanidium (guanidine) nitrate]
- Slope of replot of A versus inhibitor concentration (unprotonated pump) (sodium pump [1]; human red blood cells): 0.175 ± 0.014
- Slope of replot of B versus inhibitor concentration (protonated pump) (sodium pump [1]; human red blood cells): 0.016 ± 0.001

SMILES: C[C@@H]1O[C@@H](O[C@H]2C[C@@H](O)[C@]3(CO)[C@H]4[C@H](O)C[C@]5(C)[C@@H](C6=CC(=O)OC6)CC[C@]5(O)[C@@H]4CC[C@]3(O)C2)[C@H](O)[C@H](O)[C@H]1O [ouabain]
- Fold decrease by protons of the kinetic constant / Ki (sodium pump [2]; rat red cells): 2.2 fold
- Fold increase of the kinetic constant for protons caused by the ligand (sodium pump [2]; rat red cells): 2.2 fold
